Calls of active or inactive are those of the source. No cut-off for these calls is given here.
Experiments:
SBcl2 [1] = assay: Cytotoxicity against human SBcl2 cells harboring NRAS Q61I mutant assessed as reduction in cell viability after 48 hrs by EZ4U reagent based spectrophotometric method; assay type: functional; details: SBcl2, 48 h
MUGMel1 [2] = assay: Induction of apoptosis in human MUGMel1 cells assessed as early apoptotic cells at IC50 concentration after 24 hrs by Annexin V/SYTOX Green based flow cytometric analysis (reference value: 3.27%); assay type: functional
SBcl2 [3] = assay: Induction of apoptosis in human SBcl2 cells assessed as effect on BAX protein expression at IC50 concentration after 24 hrs by Western blot analysis; assay type: functional, cell-based
MUGMel1 [4] = assay: Induction of apoptosis in human MUGMel1 cells assessed as early apoptotic cells at IC50 concentration after 6 hrs by Annexin V/SYTOX Green based flow cytometric analysis (reference value: 2.55%); assay type: functional
MUGMel2 [5] = assay: Cytotoxicity against human MUGMel2 cells harboring NRAS pQ61K mutant assessed as reduction in cell viability after 24 hrs by EZ4U reagent based spectrophotometric method; assay type: functional; details: MUGMel2, 24 h
MUGMel1 [6] = assay: Induction of apoptosis in human MUGMel1 cells assessed as viable cells at IC50 concentration after 6 hrs by Annexin V/SYTOX Green based flow cytometric analysis (reference value: 96.01%); assay type: functional
WM164 [7] = assay: Induction of apoptosis in human WM164 cells assessed as late apoptotic cells at IC50 concentration after 24 hrs by Annexin V/SYTOX Green based flow cytometric analysis (reference value: 1.81%); assay type: functional
MUGMel2 [8] = assay: Induction of apoptosis in human MUGMel2 cells assessed as early apoptotic cells at IC50 concentration after 24 hrs by Annexin V/SYTOX Green based flow cytometric analysis (reference value: 3.31%); assay type: functional
MUGMel1 [9] = assay: Cytotoxicity against human MUGMel1 cells assessed as reduction in cell viability after 72 hrs by EZ4U reagent based spectrophotometric method; assay type: functional; details: MUGMel1, 72 h
WM793 [10] = assay: Induction of apoptosis in human WM793 cells assessed as necrotic cells at IC50 concentration after 6 hrs by Annexin V/SYTOX Green based flow cytometric analysis (reference value: 0.32%); assay type: functional
SBcl2 [11] = assay: Antitumour activity against human SBcl2 cells xenografted in NU(NCr)-Foxn1 mouse assessed as decrease in tumour size at 2 ug/g administered for three consecutive days with 1 day interval for four cycle; assay type: functional, cell-based
MUGMel2 [12] = assay: Induction of apoptosis in human MUGMel2 cells assessed as up regulation of NOXA protein expression at IC50 concentration after 24 hrs by Western blot analysis; assay type: functional, cell-based
WM793 [13] = assay: Induction of apoptosis in human WM793 cells assessed as effect on BAD mRNA expression at IC50 concentration after 6 to 24 hrs by RT-qPCR analysis; assay type: functional, cell-based
SBcl2 [14] = assay: Induction of apoptosis in human SBcl2 cells assessed as increase in caspase -3 activity at IC50 concentration after 24 hrs by Alexa Fluor 647 antibody based flow cytometric analysis; assay type: functional, cell-based
MUGMel1 [15] = assay: Cytotoxicity against human MUGMel1 cells assessed as reduction in cell viability after 48 hrs by EZ4U reagent based spectrophotometric method; assay type: functional; details: MUGMel1, 48 h
SBcl2 [16] = assay: Induction of apoptosis in human SBcl2 cells assessed as up regulation of NOXA at IC50 concentration after 6 to 24 hrs by RT-qPCR analysis; assay type: functional, cell-based
WM164 [17] = assay: Induction of apoptosis in human WM164 cells assessed as necrotic cells at IC50 concentration after 6 hrs by Annexin V/SYTOX Green based flow cytometric analysis (reference value: 0.81%); assay type: functional
MUGMel2 [18] = assay: Induction of apoptosis in human MUGMel2 cells assessed as early apoptotic cells at IC50 concentration after 6 hrs by Annexin V/SYTOX Green based flow cytometric analysis (reference value: 2.89%); assay type: functional
WM793 [19] = assay: Induction of apoptosis in human WM793 cells assessed as effect on PUMA protein expression at IC50 concentration after 24 hrs by Western blot analysis; assay type: functional, cell-based
SBcl2 [20] = assay: Antitumour activity against human SBcl2 cells xenografted in NU(NCr)-Foxn1 mouse assessed as increase in fibrosis at 2 ug/g administered for three consecutive days with 1 day interval for four cycle by hematoxylin and eosin staining based microscopic analysis; assay type: functional, cell-based
WM164 [21] = assay: Induction of apoptosis in human WM164 cells assessed as necrotic cells at IC50 concentration after 24 hrs by Annexin V/SYTOX Green based flow cytometric analysis (reference value: 0.85%); assay type: functional
WM793 [22] = assay: Induction of apoptosis in human WM793 cells assessed as increase in caspase -3 activity at IC50 concentration after 24 hrs by Alexa Fluor 647 antibody based flow cytometric analysis; assay type: functional, cell-based
MRC5 [23] = assay: Cytotoxicity against human MRC5 cells assessed as reduction in cell viability after 24 hrs by EZ4U reagent based spectrophotometric method; assay type: functional; details: MRC5, 24 h
SBcl2 [24] = assay: Induction of apoptosis in human SBcl2 cells assessed as viable cells at IC50 concentration after 6 hrs by Annexin V/SYTOX Green based flow cytometric analysis (reference value: 80.68%); assay type: functional
SBcl2 [25] = assay: Induction of apoptosis in human SBcl2 cells assessed as necrotic cells at IC50 concentration after 24 hrs by Annexin V/SYTOX Green based flow cytometric analysis (reference value: 0.21%); assay type: functional
WM793 [26] = assay: Induction of apoptosis in human WM793 cells assessed as effect on BAX protein expression at IC50 concentration after 24 hrs by Western blot analysis; assay type: functional, cell-based
WM164 [27] = assay: Induction of apoptosis in human WM164 cells assessed as effect on BAX protein expression at IC50 concentration after 24 hrs by Western blot analysis; assay type: functional, cell-based
[28] = Toxicity in NU(NCr)-Foxn1 mouse xenografted with WM164 assessed as weight loss at 1 to 4 ug/g administered for three consecutive days with 1 day interval for four cycle; details: in vivo
WM164 [29] = assay: Cytotoxicity against human WM164 cells harboring BRAF V600E mutant assessed as reduction in cell viability after 48 hrs by EZ4U reagent based spectrophotometric method; assay type: functional; details: WM164, 48 h
WM793 [30] = assay: Induction of apoptosis in human WM793 cells assessed as effect on BAD protein expression at IC50 concentration after 24 hrs by Western blot analysis; assay type: functional, cell-based
SBcl2 [31] = assay: Induction of apoptosis in human SBcl2 cells treated with scrambled si-RNA assessed as up regulation of NOXA protein expression at IC50 concentration after 24 hrs by Western blot analysis; assay type: functional, cell-based
MUGMel2 [32] = assay: Induction of apoptosis in human MUGMel2 cells assessed as effect on BAD protein expression at IC50 concentration after 24 hrs by Western blot analysis; assay type: functional, cell-based
WM164 [33] = assay: Induction of apoptosis in human WM164 cells assessed as up regulation of PUMA at IC50 concentration after 6 to 24 hrs by RT-qPCR analysis; assay type: functional, cell-based
WM164 [34] = assay: Induction of apoptosis in human WM164 cells assessed as viable cells at IC50 concentration after 6 hrs by Annexin V/SYTOX Green based flow cytometric analysis (reference value: 94.77%); assay type: functional
MRC5 [35] = assay: Cytotoxicity against human MRC5 cells assessed as reduction in cell viability after 48 hrs by EZ4U reagent based spectrophotometric method; assay type: functional
MUGMel2 [36] = assay: Cytotoxicity against human MUGMel2 cells harboring NRAS pQ61K mutant assessed as reduction in cell viability after 72 hrs by EZ4U reagent based spectrophotometric method; assay type: functional; details: MUGMel2, 72 h

With `CC(C)=CC[C@@H](OC(=O)C=C(C)C)C1=CC(=O)c2c(O)ccc(O)c2C1=O` [DIMETHYLACRYLSHIKONIN] the IC50 (SBcl2 [1]) was 1.1 µM, the Activity (MUGMel1 [2]) was 40.28% and the Activity (SBcl2 [3]) was “inactive”. For the same molecule, the Activity (MUGMel1 [4]) was 3.51%, the IC50 (MUGMel2 [5]) was 5.1 µM and the Activity (MUGMel1 [6]) was 94.02%. For the same molecule, the Activity (WM164 [7]) was 11.6%, the Activity (MUGMel2 [8]) was 10.92% and the IC50 (MUGMel1 [9]) was 1 µM. The Activity (WM793 [10]) was 0.3%, the Activity (SBcl2 [11]) was “inactive” and the Activity (MUGMel2 [12]) was “Active”. For the same molecule, the Activity (WM793 [13]) was “inactive”, the Activity (SBcl2 [14]) was “Active” and the IC50 (MUGMel1 [15]) was 1.1 µM. The Activity (SBcl2 [16]) was “Active”, the Activity (WM164 [17]) was 0.24% and the Activity (MUGMel2 [18]) was 10.56%. For the same molecule, the Activity (WM793 [19]) was “inactive”, the Activity (SBcl2 [20]) was “Active” and the Activity (WM164 [21]) was 0.52%. The Activity (WM793 [22]) was “Active”, the IC50 (MRC5 [23]) was 9.5 µM and the Activity (SBcl2 [24]) was 21.29%. The Activity (SBcl2 [25]) was 0%, the Activity (WM793 [26]) was “inactive” and the Activity (WM164 [27]) was “inactive”. The Activity [28] was “Non-Toxic”, the IC50 (WM164 [29]) was 3 µM and the Activity (WM793 [30]) was “inactive”. For the same molecule, the Activity (SBcl2 [31]) was “Active”, the Activity (MUGMel2 [32]) was “inactive” and the Activity (WM164 [33]) was “Active”. For the same molecule, the Activity (WM164 [34]) was 88.63%, the IC50 (MRC5 [35]) was “Not Active” and the IC50 (MUGMel2 [36]) was 1.7 µM.
